Values quoted from earlier work, collected in patent US20080038403A1, “WEIGHT MANAGEMENT SYSTEM FOR OBESE ANIMALS” (MARS INCORPORATED, priority 2002, published 2008).

Key:
[1] = dietary consumption
[2] = dietary consumption; remark: listed apart in the source

## 1,3-diacylglycerol
[1]
  serum cholesterol levels: lowers
  serum triglyceride levels: lowers
[2]
  body weight: decreases
  regional fat deposition: decreases
